Assay results taken from patent publication US20010009926A1, “Mesozeaxanthin formulations for treatment of retinal disorders” (THE HOWARD FOUNDATION, priority 1993, published 2001).

Assays:
Format in all cases: in vivo, human
[1] = Serum lutein by HPLC during oral lutein ester supplementation; settings: subjects three, equivalent of 30 mg lutein per day as lutein esters in canola oil, within the first week
Method: Serum lutein and zeaxanthin was measured by conventional HPLC.
Two healthy adult males (of age/weight 42 year/60 kg and 51 years/61 kg) ingested the equivalent of 30 mg of lutein per day in the form of lutein esters (source: marigold flowers) suspended in 2 ml of canola oil. This was continued over a period of 138 days and then the dose of lutein was discontinued. Chemical analysis has shown that the product contains approximately 97% lutein—and 3% zeaxanthin. Fasting serum lutein/zeaxanthin levels of both individuals were determined by conventional HPLC on the morning of the first dose as a measure of base line. Blood samples were drawn at 2-3 hour intervals throughout the first day for both subjects and then daily for the next three days. Following the first week of supplementation, blood samples were drawn weekly. Blood was collected into a standard Vacutainer serum separator tube containing no anticoagulant. After allowing about 30 min for coagulation, the sample was centrifuged for 10 minutes and the serum removed by pipette. Serum samples were stored at −20° C. prior to analysis. […] 20 μl of an internal standard, monohexyl lutein ether, containing about 90 ng, was added to the solution at this point for quantification of the caratenoids by HPLC. […]

[2] = test system: macular pigment; assay: Macular pigment optical density by heterochromatic flicker photometry during lutein supplementation
Method: A trial was conducted to determine if dietary supplementation with lutein and zeaxanthin effectively can change the pigment levels in the macula. The optical density of the macula pigment was measured for each subject using the method of flicker photometry (Bone and Sparrock 1971; Bone et al 1992). The concentration of pigment in the macula is proportioned to its optical density and the actual amount of pigment was assumed to be proportional to concentration. Thus, optical density was taken as a measure of the total amount of pigment.
Two healthy adult males (of age/weight 42 year/60 kg and 51 years/61 kg) ingested the equivalent of 30 mg of lutein per day in the form of lutein esters (source: marigold flowers) suspended in 2 ml of canola oil. This was continued over a period of 138 days and then the dose of lutein was discontinued. Chemical analysis has shown that the product contains approximately 97% lutein—and 3% zeaxanthin. Fasting serum lutein/zeaxanthin levels of both individuals were determined by conventional HPLC on the morning of the first dose as a measure of base line. Blood samples were drawn at 2-3 hour intervals throughout the first day for both subjects and then daily for the next three days. Following the first week of supplementation, blood samples were drawn weekly. Blood was collected into a standard Vacutainer serum separator tube containing no anticoagulant. After allowing about 30 min for coagulation, the sample was centrifuged for 10 minutes and the serum removed by pipette. Serum samples were stored at −20° C. prior to analysis. Carotenoids ware extracted from the serum by a minor modification of widely used methods (Guiliano et al, 1993; Handelmann et al, 1992), 200 μl aliquots of serum were diluted with 2 mL of 50% ethanol/water to ensure precipitation of protein components. 20 μl of an internal standard, monohexyl lutein ether, containing about 90 ng, was added to the solution at this point for quantification of the caratenoids by HPLC. This solution was extracted 3 times with 2 mL portions of hexane by vortexing the sample for 1 min followed by centrifuging for 5 minutes and pipetting off the hexane layer. The three portions of hexane were dried under a stream of nitrogen gas and stared under nitrogen at −20° C. until analysis was completed.
The optical density of the macular pigment was measured for each subject using the method of heterochomatic flicker photometry (Bone and Sparrock, 1971; Bone et al, 1992). The concentration of pigment in the macula is proportional to its optical density and the actual amount of pigment was assumed to be proportional to concentration. Thus optical density was taken to be a measure of the total amount of pigment.
In the flicker method, a small visual stimulus is presented to the eye which alternates in wavelength between 460 nm, the peak absorbance wavelength of the macular pigment, and 540 nm where pigment absorbance is zero (Bone et al., 1992). Above a certain frequency, color fusion occurs but the stimulus continues to flicker. At a higher frequency, a critical condition can be reached where flicker can be eliminated only if the two wavelength components are matched in luminance. If the stimulus is viewed peripherally, so that the image falls outside the macula, neither wavelength is attenuated by the macular pigment. However, if the stimulus is viewed centrally, the intensity of the 460 nm light must be increased to compensate for absorption by the macular pigment in order to achieve a luminance match. Thus it is possible to determine the optical density of a subject's macular pigment at the peak wavelength, or indeed any other wavelength.
The apparatus consisted of a two-channel Maxwellian view system based on a single light source, a 75 W xenon arc lamp. The wavelengths of the two channels were determined by 460 nm and 540 nm interference filters respectively, having half-widths of 7 and 9 nm. […]

[3] = Skin colour observation during lutein supplementation; settings: each subject; after several weeks of administration, 30 mg lutein per day
[4] = test system: macular pigment; assay: Macular pigment optical density by heterochromatic flicker photometry during lutein supplementation; settings: 30 mg/day lutein ester, increased from 0.3

CC1=C[C@H](O)CC(C)(C)[C@H]1/C=C/C(C)=C/C=C/C(C)=C/C=C/C=C(C)/C=C/C=C(C)/C=C/C1=C(C)C[C@@H](O)CC1(C)C [lutein]
increase in serum lutein concentration (factor) [1]: about 10 times
day until which optical density continued to rise before plateau ([2]; subject four, both eyes, dose discontinued at day 138): 200 days
slope of macular pigment optical density (linear least squares fit) ([2]; subject four, left eye, day -7 to day 83 of lutein supplementation): 3.1×10^−3 absorbance units per week
macular pigment optical density, final average ([2]; subject four, left eye, initial mean 0.76, p<0.001): 0.79
slope of macular pigment optical density (linear least squares fit) ([2]; subject four, right eye, day -7 to day 83 of lutein supplementation): 2.3×10^−3 absorbance units per week
macular pigment optical density, final average ([2]; subject four, right eye, initial mean 0.66, p<0.001): 0.70
macular pigment optical density, final average ([2]; subject three, left eye, average of 15 measurements over 18 days at end of experiment, initial values 0.57 and 0.58, p<0.0005): 0.70
slope of macular pigment optical density (linear least squares fit) ([2]; subject three, left eye, day -7 to day 72 of lutein supplementation): 15.3×10^−3 absorbance units per week
macular pigment optical density, final average ([2]; subject three, right eye, average of 15 measurements over 18 days at end of experiment, initial values 0.57 and 0.58, p<0.0005): 0.67
day until which optical density continued to rise before plateau ([2]; subject three, dose of lutein discontinued at day 138): ~180 days
skin colour of the palms of the hands [3]: turned a noticeable yellow colour

lutein ester
macular pigment optical density ([4]; subject one, both eyes, after 75 days, then plateau): 0.5
macular pigment optical density ([4]; subject two, left eye only): 0.5
